Assay results taken from patent publication US8530430B2, “TTK peptides and vaccines including the same” (Oncotherapy Science, Inc., priority 2009, dated 2013).

What was measured:
peptide-pulsed T2 cells [1] = assay: IFN-gamma ELISPOT assay on CTLs induced with TTK peptides; type: cell-based, human; settings: wells of CTLs stimulated with the peptide, against peptide-pulsed target cells compared to control wells
Description: Monocyte-derived dendritic cells (DCs) were used as antigen-presenting cells (APCs) to induce cytotoxic T lymphocyte (CTL) responses against peptides presented on human leukocyte antigen (HLA). DCs were generated in vitro as described elsewhere (Nakahara S et al., Cancer Res 2003 Jul. 15, 63(14): 4112-8). Specifically, peripheral blood mononuclear cells (PBMCs) isolated from a normal volunteer (HLA-A*0201 positive) by Ficoll-Plaque (Pharmacia) solution were separated by adherence to a plastic tissue culture dish (Becton Dickinson) so as to enrich them as the monocyte fraction. The monocyte-enriched population was cultured in the presence of 1,000 U/ml of granulocyte-macrophage colony-stimulating factor (GM-CSF) (R&D System) and 1,000 U/ml of interleukin (IL)-4 (R&D System) in AIM-V Medium (Invitrogen) containing 2% heat-inactivated autologous serum (AS). After 7 days of culture, the cytokine-induced DCs were pulsed with 20 micro-g/ml of each of the synthesized peptides in the presence of 3 micro-g/ml of beta 2-microglobulin for 3 hrs at 37 degrees C. in AIM-V Medium. The generated cells appeared to express DC-associated molecules, such as CD80, CD83, CD86 and HLA class II, on their cell surfaces (data not shown). These peptide-pulsed DCs were then inactivated by X-irradiation (20 Gy) and mixed at a 1:20 ratio with autologous CD8+ T cells, obtained by positive selection with CD8 Positive Isolation Kit (Dynal). These cultures were set up in 48-well plates (Corning); each well contained 1.5×10^4 peptide-pulsed DCs, 3×10^5 CD8+ T cells and 10 ng/ml of IL-7 (R&D System) in 0.5 ml of AIM-V/2% AS medium. Three days later, these cultures were supplemented with IL-2 (CHIRON) to a final concentration of 20 IU/ml. On days 7 and 14, the T cells were further stimulated with the autologous peptide-pulsed DCs. The DCs were prepared each time by the same way described above. CTL was tested against peptide-pulsed T2 cells after the 3rd round of peptide stimulation on day 21 (Tanaka H et al., Br J Cancer 2001 Jan. 5, 84(1): 94-9; Umano Y et al., Br J Cancer 2001 Apr. 20, 84(8): 1052-7; Uchida N et al., Clin Cancer Res 2004 Dec. 15, 10(24): 8577-86; Suda T et al., Cancer Sci 2006 May, 97(5): 411-9; Watanabe T et al., Cancer Sci 2005 August, 96(8): 498-506).
(§1) Specifically, peptide-pulsed T2 (1×10^4/well) was prepared as stimulator cells. Cultured cells in 48 wells were used as responder cells. IFN-gamma ELISPOT assay and IFN-gamma ELISA assay were performed under manufacture procedure.

peptide-pulsed T2 cells [2] = assay: IFN-gamma ELISA assay of established CTL lines and CTL clone; type: cell-based, human; settings: for IFN-gamma production of CTL lines: CTL line established with the peptide, target cells pulsed with corresponding peptide vs without peptide pulse
Description: CTLs were expanded in culture using the method similar to the one described by Riddell et al. (Walter E A et al., N Engl J Med 1995 Oct. 19, 333(16): 1038-44; Riddell S R et al., Nat Med 1996 February, 2(2): 216-23). A total of 5×10^4 CTLs were resuspended in 25 ml of AIM-V/5% AS medium with 2 kinds of human B-lymphoblastoid cell lines, inactivated by Mitomycin C, in the presence of 40 ng/ml of anti-CD3 monoclonal antibody (Pharmingen). One day after initiating the cultures, 120 IU/ml of IL-2 were added to the cultures. The cultures were fed with fresh AIM-V/5% AS medium containing 30 IU/ml of IL-2 on days 5, 8 and 11 (Tanaka H et al., Br J Cancer 2001 Jan. 5, 84(1): 94-9; Umano Y et al., Br J Cancer 2001 Apr. 20, 84(8): 1052-7; Uchida N et al., Clin Cancer Res 2004 Dec. 15, 10(24): 8577-86; Suda T et al., Cancer Sci 2006 May, 97(5): 411-9; Watanabe T et al., Cancer Sci 2005 August, 96(8): 498-506).
The dilutions were made to have 0.3, 1, and 3 CTLs/well in 96 round-bottomed micro titer plate (Nalge Nunc International). CTLs were cultured with 1×10^4 cells/well of 2 kinds of human B-lymphoblastoid cell lines, 30 ng/ml of anti-CD3 antibody, and 125 U/ml of IL-2 in a total of 150 micro-l/well of AIM-V Medium containing 5% AS. 50 micro-1/well of IL-2 were added to the medium 10 days later so to reach a final concentration of 125 U/ml IL-2. CTL activity was tested on the 14th day, and CTL clone was expanded using the same method as described above (Uchida N et al., Clin Cancer Res 2004 Dec. 15, 10(24): 8577-86; Suda T et al., Cancer Sci 2006 May, 97(5): 411-9; Watanabe T et al., Cancer Sci 2005 August, 96(8): 498-506).
as §1

[3] = system: COS7 transfected with both the full length TTK gene and the HLA-A*0201 molecule; settings: results of WO2008/102557 duplicated as FIG. 4; cited from earlier work
H1650 cells = assay: Specific CTL activity against HLA-A2 positive, TTK positive tumor cell line; type: cell-based, human; settings: FIG. 3c
Description: (§2) T2 (HLA-A2), human B-lymphoblastoid cell line and COST, African green monkey kidney cell line, were purchased from ATCC. HLA-A2 positive and TTK positive tumor cell line, H1650, was purchased from ATCC. HLA-A2 negative and TTK positive cell lines, PC-3 and TE-1, were purchased from JCRB Cell bank and RIKEN Cell Bank, respectively.
(§3) The established CTL lines and clones raised against each peptide were examined for the ability to recognize target cells that express TTK and HLA-A*0201 molecule. […] COS7 cells transfected with either full length of TTK genes or HLA-A*0201 were prepared as controls. […] And then this peptide-HLA complex was recognized by the CTLs.

TE1 cells = assay: Specific CTL activity against HLA-A2 negative, TTK positive control tumor cell line TE-1; type: cell-based, human
Description: as §2, §3

PC3 cells = assay: Specific CTL activity against HLA-A2 negative, TTK positive control tumor cell line PC-3; type: cell-based, human
Description: as §2, §3

[4] = system: COS7 cells transfected with both the full length of TTK and HLA-A*0201 gene; assay: Specific CTL activity against target cells expressing TTK and HLA-A*0201; type: cell-based, African green monkey
Description: (§4) The cDNA encoding an open reading frame of target genes or HLA-A*0201 was amplified by PCR. The PCR-amplified products were cloned into a vector. The plasmids were transfected into COS7, which is the target genes and HLA-A*0201-negative cell line, using lipofectamine 2000 (Invitrogen) according to the manufacturer's recommended procedures. After 2 days from transfection, the transfected cells were harvested with versene (Invitrogen) and used as the target cells (5×10^4 cells/well) for CTL activity assay.
as §3

[5] = system: COS7 cells transfected with either full length of TTK genes or HLA-A*0201; assay: Specific CTL activity against control COS7 transfectants; type: cell-based, African green monkey; settings: CTL line and clone; COS7 expressing either TTK or HLA-A*0201 only
Description: as §4, §3

Substance: TTK-A02-9-142: 9-mer HLA-A*0201 binding candidate peptide derived from TTK, SEQ ID NO: 15 (FAFVHISFA)
- IFN-gamma production of peptide-induced CTLs (peptide specific CTL activity) (peptide-pulsed T2 cells [1]): potent IFN-gamm production
- IFN-gamma production of CTL lines (peptide-pulsed T2 cells [2]): potent IFN-gamma production

Substance: TTK-A02-9-146: 9-mer HLA-A*0201 binding candidate peptide derived from TTK, SEQ ID NO: 19 (HISFAQFEL)
- IFN-gamma production of peptide-induced CTLs (peptide specific CTL activity) (peptide-pulsed T2 cells [1]): potent IFN-gamm production

Substance: TTK-A02-9-462: 9-mer HLA-A*0201 binding candidate peptide derived from TTK, SEQ ID NO: 1 (YMSCFRTPV)
- IFN-gamma production of peptide-induced CTLs (peptide specific CTL activity) (peptide-pulsed T2 cells [1]): potent IFN-gamm production
- IFN-gamma production of CTL lines (peptide-pulsed T2 cells [2]): potent IFN-gamma production
- Specific CTL activity of CTL clones against COS7 transfected with both TTK and HLA-A*0201 [3]: specific CTL activity

Substance: TTK-A02-9-547: 9-mer peptide derived from TTK, SEQ ID NO: 5, disclosed in Applicants' WO2008/102557 (KQIYAIKYV)
- Specific CTL activity of CTL clones against COS7 transfected with both TTK and HLA-A*0201 [3]: specific CTL activity

Substance: TTK-A02-9-564: 9-mer HLA-A*0201 binding candidate peptide derived from TTK, SEQ ID NO: 20 (TLDSYRNEI)
- IFN-gamma production of peptide-induced CTLs (peptide specific CTL activity) (peptide-pulsed T2 cells [1]): potent IFN-gamm production

Substance: TTK-A02-9-593: nonapeptide derived from TTK, HLA-A2 restricted epitope peptide, SEQ ID NO: 3 (ITDQYIYMV)
- Specific CTL activity of CTL clone against tumor cell line endogenously expressing both TTK and HLA-A*0201 (H1650 cells): specific CTL activity
- IFN-gamma production of peptide-induced CTLs (peptide specific CTL activity) (peptide-pulsed T2 cells [1]): potent IFN-gamm production
- IFN-gamma production of CTL clone (peptide-pulsed T2 cells [2]; CTL clone established by limiting dilution from the CTL line, target cells pulsed with peptide): Potent IFN-gamma productions
- IFN-gamma production of CTL lines (peptide-pulsed T2 cells [2]): potent IFN-gamma production
- Specific CTL activity of CTL clone against control tumor cells (TE1 cells): no significant specific CTL activity was detected
- Specific CTL activity of CTL clone against control tumor cells (PC3 cells): no significant specific CTL activity was detected
- CTL activity of CTL clone against COS7 cells expressing both TTK and HLA-A*0201 ([4]; CTL clone stimulated with the peptide as effector cells (FIG. 3b)): potent CTL activity
- CTL activity of CTL line against COS7 cells expressing both TTK and HLA-A*0201 ([4]; CTL line stimulated with the peptide as effector cells (FIG. 3a)): potent CTL activity
- Increase in the IFN-gamma production compared to the peptides of WO2008/102557 ([4]; compared to TTK-A2-9-462, TTK-A02-9-547, TTK-A2-9-719 and TTK-A2-10-462 (FIG. 3 vs FIG. 4)): one or two orders of magnitude
- Specific CTL activity against the controls [5]: no significant specific CTL activity was detected

Substance: TTK-A02-9-630: 9-mer HLA-A*0201 binding candidate peptide derived from TTK, SEQ ID NO: 2 (NMLEAVHTI)
- IFN-gamma production of peptide-induced CTLs (peptide specific CTL activity) (peptide-pulsed T2 cells [1]): potent IFN-gamm production
- IFN-gamma production of CTL lines (peptide-pulsed T2 cells [2]): potent IFN-gamma production

Substance: TTK-A02-9-719: 9-mer HLA-A*0201 binding candidate peptide derived from TTK, SEQ ID NO: 6 (SLGCILYYM)
- IFN-gamma production of peptide-induced CTLs (peptide specific CTL activity) (peptide-pulsed T2 cells [1]): potent IFN-gamm production
- IFN-gamma production of CTL lines (peptide-pulsed T2 cells [2]): potent IFN-gamma production
- Specific CTL activity of CTL clones against COS7 transfected with both TTK and HLA-A*0201 [3]: specific CTL activity

Substance: TTK-A02-10-462: 10-mer HLA-A*0201 binding candidate peptide derived from TTK, SEQ ID NO: 22 (YMSCFRTPVV)
- IFN-gamma production of peptide-induced CTLs (peptide specific CTL activity) (peptide-pulsed T2 cells [1]): potent IFN-gamm production
- IFN-gamma production of CTL lines (peptide-pulsed T2 cells [2]): potent IFN-gamma production
- Specific CTL activity of CTL clones against COS7 transfected with both TTK and HLA-A*0201 [3]: specific CTL activity

Substance: TTK-A02-10-542: 10-mer HLA-A*0201 binding candidate peptide derived from TTK, SEQ ID NO: 34 (VLNEKKQIYA)
- IFN-gamma production of peptide-induced CTLs (peptide specific CTL activity) (peptide-pulsed T2 cells [1]): potent IFN-gamm production

Substance: TTK-A02-10-661: 10-mer HLA-A*0201 binding candidate peptide derived from TTK, SEQ ID NO: 35 (KLIDFGIANQ)
- IFN-gamma production of peptide-induced CTLs (peptide specific CTL activity) (peptide-pulsed T2 cells [1]): potent IFN-gamm production
